Measured values reported in US20240382610A1 (priority 2021, published 2024).

What was measured:
CD19+ B cells = assay: Free CpG activity on CD40 expression by CD19+ B cells in human PBMCs; assay type: cell-based; conditions: PBMC from three donors (D559, D804, D643)
Method: Trima residuals were received from Vitalant and diluted 1:2 with Phosphate Buffered Saline (PBS, Gibco). Diluted blood was split into two tubes and underplayed with 15 mL Ficoll-Paque (GE Healthcare). Tubes were centrifuged for 30 minutes at 400×g. PBMCs were collected from the interface, resuspended and washed in FACS buffer (PBS with 0.5% Bovine Serum Albumin (Gibco)). After one wash, PBMCs were resuspended in Complete RPMI (RPMI+10% FBS).
PBMCs were immediately plated onto a 96-well format (500K/well) in Complete RPMI. Five-fold serial dilutions were added to the cells from 1 uM to […] of CpG oligonucleotides at 37° C. under 5% CO2 for 48 hours. Cells were pelleted by centrifugation for five minutes at 400×g and stained at 4° C. in Fixable Viability Dye eFluor 780 (Thermo Fisher) diluted 1:4000 in PBS. Cells were centrifuged and stained at 4° C. in FACS buffer for 30 minutes containing FcR Blocking Reagent (Miltenyi Biotec), anti-CD19, anti-CD20, anti-CD40, anti-HLADR and anti-CD80. Cells were centrifuged and washed twice in FACS buffer and fixed in 0.5% paraformaldehyde. Cells were analyzed on Attune NxT Flow Cytometer (Thermo Fisher), with subsequent data analysis by Flowjo 10.7 (Treestar). Dead cells were excluded by gating on the eFluor 780-negative population. B cells were identified as CD19^+CD20^+cells and level of activation marker was assessed by median fluorescent intensity. […]

[1] = test system: Ramos-Blue Cells NF-kB/AP-1 Reporter B lymphocytes; assay: Ramos NFkb Reporter Assay; assay type: cell-based; conditions: 24 h stimulation, OD655
[2] = test system: DLD-1 nectin-4 tumor cells; assay type: cell-based, human

With “CpG 7-7: "CpG 7-7 (7-7b; SEQ ID NO:35)", free CpG oligonucleotide of series 7 (DNA NCGTCGTGTCGTTT; modified_base 1 OTHER; 5-Bromo-2'-deoxyuridine; modified_base 1..4 OTHER; phosphorothioate linkages; modified_base 4..5 OTHER; phosphotriester linker-PEG24-NH2; modified_base 5..9 OTHER; modified_base 9..10 OTHER; phosphorodithioate linkage; modified_base 10..14 OTHER; modified_base 13..14 OTHER; 2'-O-methyl-thymidine; misc_feature 14 3' spacer)” the “activity as observed by CD40 expression” value (CD19+ B cells) was “higher activities”, the “activity in NFkb reporter assay” value [1] was “significantly higher activity” and the “phagocytosis of DLD-1 nectin-4 tumor cells by macrophages” value [2] was “did not appear to result in detectable phagocytosis”.
